Source: publication PMC9838653 (Biochemistry, 2022)

Target: C4-reductase from serotype HS:15 (HS:15) (Campylobacter jejuni, UniProt F2X7A6)
Test: X-ray crystal structure, […] A
Format: binding
Settings: co-crystallised with 5 mM NADPH and 5 mM GDP; pH 7.5; active site

Row | Structure (SMILES) | X-ray crystal structure, 1.45 A
1 | Nc1nc2c(ncn2[C@@H]2O[C@H](COP(=O)(O)OP(=O)(O)O)[C@@H](O)[C@H]2O)c(=O)[nH]1 [GDP] | the corresponding electron densities for the GDP and NADPH ligands were unambiguous
2 | NC(=O)C1=CN([C@@H]2O[C@H](COP(=O)(O)OP(=O)(O)OC[C@H]3O[C@@H](n4cnc5c(N)ncnc54)[C@H](OP(=O)(O)O)[C@@H]3O)[C@@H](O)[C@H]2O)C=CC1 [NADPH] | the corresponding electron densities for the GDP and NADPH ligands were unambiguous
